From EP3394070B1, “CRYSTALLINE FORMS OF QUINOLONE ANALOGS AND THEIR SALTS” (Senhwa Biosciences, Inc., priority 2015, dated 2017)
Counter-ions that a name gives are not always drawn.

How the values were obtained:
[1] = Stability (HPLC purity) of acid salts in water, stirred at 42 °C for 3 days; type: physicochemical; conditions: for Purity % a/a after 3 days (HPLC): in water, stirred at 42 °C for 3 days
Method: (§1) Crystalline forms (i.e., salts and free base) of the present invention were analyzed by total area normalization (TAN).
The mixture was stirred at 42 °C for 3 days and each solution was analyzed by HPLC for concentration and purity. Table 11 Solubility and Purity of Acid Addition Salts

physchem = conditions: 42 °C, water, thermodynamic from solid
[2] = Solid-form stability of acid salts stored at elevated temperature (HPLC purity); type: physicochemical; conditions: for Purity % a/a after 3 days at 80 °C (HPLC): solid form stored at 80 °C
Method: as §1
Stability of the acid salts were also tested by storing the salts (solid forms) at an elevated temperature of 45 and 80 °C. Table 12 Stability of Acid Addition Salts

[3] = water, 72 h

| Structure (SMILES) | Purity % a/a after 3 days (HPLC) [1] | solubility at 3 days (physchem) | Purity % a/a after 3 days at 80 °C (HPLC) [2] | Starting Purity % a/a (HPLC) ([1]; before the 3 day test (time zero)) | Aqueous Solubility (Calculated) [3] | Purity % a/a after 3 days at 45 °C (HPLC) ([2]; solid form stored at 45 °C) |
| --- | --- | --- | --- | --- | --- | --- |
| Cc1cnc(CNC(=O)c2c(=O)c3ccc(N4CCCN(C)CC4)nc3n3c2sc2ccccc23)cn1 [Free Base, 2-(4-Methyl-[1,4]diazepan-1-yl)-5-oxo-5H-7-thia-1,11b-diaza-benzo[c]fluorene-6-carboxylic acid (5-methyl-pyrazin-2-ylmethyl)-amide] | 99.58 % a/a | < 100 mg/mL | 99.67 % a/a |  |  |  |
| Cc1cnc(CNC(=O)c2c(=O)c3ccc(N4CCCN(C)CC4)nc3n3c2sc2ccccc23)cn1 [HCl] | 88.62 % a/a |  | 98.71 % a/a | 98.78 % a/a | > 100 mg/mL | 98.48 % a/a |
